# Tests used:
# Hela cells [1] = test: Competition assay with exogenous folic acid in Hela cells; format: cell-based; details: 4 μM/l folic acid, 24 hours
# Text: Then, the sample was centrifuged, the supernatant was taken, and the pellet was rewashed with cooled Hank's solution. The obtained pellet was again transferred into Hank's solution.
# Hela cells [2] = test: Phototoxicity, 24 h incubation, 1.5-15 joule/cm^2; format: cell-based; details: 670-690 nm
# Method: In other experiment, the cells were incubated with photosensitizers at 37° C. for 24 hours, and irradiated by exposed on ice by a laser medical device “LD 680-2000” (wavelength of 670-690 nm) in a dose of 1.5-15 joule/cm^2.
# Hela cells [3] = test: Accumulation in Hela cells; format: cell-based; details: for concentration in Hela cells: 2×10^−7 M/l, 37° C.
# Method: The cellular accumulation and the targeted delivery of the photoactive compounds were investigated using Hela cells, which is one of the numerous tumor cell types that overexpress folate receptors.
# Cells were cultivated for 3 days in medium 199, and transferred to Hank's solution/medium 199 (9/1). After 3 hours, the cell were collected by trypsin treatment from the substrate and placed in Hank's solution (10^5 κπ/ml). To cell suspensions, chlorin e6 conjugates were added at a concentration of 2×10^−7 M/l, and incubated at 37° C. After 1, 5, 10, 15, and 24 hours, the samples were centrifuged, the pellet was washed with the cooled Hank's solution, and transferred to Hank's solution at a concentration being equal to that in the initial suspension.
# HeLa tumor cells = test: Cytotoxicity (antiproliferative assay) in the absence of light exposure; format: cell-based; details: 24 hr incubation
# Method: Cytotoxicity was analyzed, considering the intensity of proliferative processes in cells, photosensitizer concentration, and dose of optical power. For each point, 3 flasks with cell monolayer were used.
# The monolayer culture of HeLa tumor cells was chosen and used as the cell.
# The culture of HeLa tumor cells was grown in nutrient medium 199 or in nutrient medium containing hemohydrolyzate supplemented with 10% fetal bovine serum and […] of kanamycin.
# On day 4 after the cell culture was inoculated in the flasks (100,000 cells per 2.0 ml of nutrient medium), the photosensitizer was added at a concentration of 1, 2.5, 5.0, 10.0, 20.0, or 30.0 mg/ml.
# Flasks with light-protective cover (dark cytotoxicity) were incubated at 37.5° C. for 1 hour. The cells were washed with Hank's solution 4 times. 2.0 ml of fresh nutrient medium were added, and the cells were irradiated at the temperature of melting ice for 5, 10, 15 or 20 mins by the light flux of a “METALAZ” laser medical device (wavelength: 627.8 nm, 578.2 or 510.6 nm) or “LD 680-2000” (wavelength: 670-690 nm), depending on the wavelength of maximum spectral absorption of the studied photosensitizer, at a dose of 40 J/cm^2. After 20-24 hours, the number of tumor cell was counted in Goriaev's chamber.
# HeLa cell culture = test: Phototoxicity (photodynamic activity), 3.5 h incubation, 3.3 joule/cm^2; format: cell-based; parameters: number of HELA cells (relative to the control): unit not given here; details: for number of HELA cells (relative to the control): incubation 3.5 hours
# Method: To examine the photodynamic effects of a photosensitizer on a HeLa cell culture, the photosensitizer solution was added to the nutrient media at a final concentration of 0.1, 0.5, 1.0, 5.0 or 10 mcg/ml on day 3 after transplanting the cell culture into flasks. The flasks were wrapped with a light protecting cover, and incubated at 37° C. for 3.5 hours. Then, the cells were washed with Hank's solution, and exposed on ice by a laser medical device “LD 680-2000” (wavelength: 670-690 nm) at a dose of 3.3 joule/cm^2. After 20-24 hours, the available cell monolayer was dispersed using a 0.02%-Versene solution, and the number of tumor cells was calculated in Goriaev's chamber. For each point, 3 flasks were used.
# sarcoma M-1 = test: Growth dynamics and growth inhibition of sarcoma M-1 after PDT; format: in vivo, rats
# Method: The power density was 0.51 W/cm^2, the output power was 0.4 W, and the spot light diameter was 1 cm. […] Monitoring over radiating power was conducted by a universal power meter included in the laser device “ ? 680-2000”.
substance,measurement,setting,value
[γ-(6-aminohexyl)folic acid]-chlorin e6 [chlorin e6 conjugate],effect of free folic acid on uptake in Hela cells,Hela cells [1],significantly reduced
same,phototoxicity / photosensitivity in survival test,Hela cells [2],improved the photosensitivity
same,concentration in Hela cells,Hela cells [3]; incubation time 1 hours,0.40 relative units/10^4cl.
same,concentration in Hela cells,Hela cells [3]; incubation time 5 hours,1.80 relative units/10^4cl.
same,concentration in Hela cells,Hela cells [3]; incubation time 10 hours,2.50 relative units/10^4cl.
same,concentration in Hela cells,Hela cells [3]; incubation time 15 hours,12.5 relative units/10^4cl.
same,concentration in Hela cells,Hela cells [3]; incubation time 24 hours,15.0 relative units/10^4cl.
same,kinetic of binding with cells,Hela cells [3]; Hela cells,increases linearly over 20 hours
same,cell survival rates,HeLa tumor cells,about 90%
same,inhibition of proliferation of Hela cells,"HeLa cell culture; concentration of 5-10 mcg/ml, photoexposure",fully inhibited
same,number of HELA cells (relative to the control),"HeLa cell culture; photoexposure 3.3 joule/cm^2, conc. 0.1 mcg/ml",65.1
same,number of HELA cells (relative to the control),"HeLa cell culture; photoexposure 3.3 joule/cm^2, conc. 0.5 mcg/ml",42.3
same,number of HELA cells (relative to the control),"HeLa cell culture; photoexposure 3.3 joule/cm^2, conc. 1.0 mcg/ml",12.6
same,number of HELA cells (relative to the control),"HeLa cell culture; photoexposure 3.3 joule/cm^2, conc. 5.0 mcg/ml",0.1
same,Growth inhibition rate of sarcoma M-1 of rats in volume to the control,"sarcoma M-1; 2.5 mg/100 g + 100 J/cm^2 for 1 h, day 7",47.5
same,Growth inhibition rate of sarcoma M-1 of rats in volume to the control,"sarcoma M-1; 2.5 mg/100 g + 100 J/cm^2 for 1 h, day 10",79.4
same,Growth inhibition rate of sarcoma M-1 of rats in volume to the control,"sarcoma M-1; 2.5 mg/100 g + 100 J/cm^2 for 1 h, day 12",87.6
same,Growth inhibition rate of sarcoma M-1 of rats in volume to the control,"sarcoma M-1; 2.5 mg/100 g + 100 J/cm^2 for 1 h, day 14",89.8
same,Growth inhibition rate of sarcoma M-1 of rats in volume to the control,"sarcoma M-1; 2.5 mg/100 g + 100 J/cm^2 for 1 h, day 17",94.8
same,Growth inhibition rate of sarcoma M-1 of rats in volume to the control,"sarcoma M-1; 2.5 mg/100 g + 100 J/cm^2 for 1 h, day 19",94.1
same,Growth inhibition rate of sarcoma M-1 of rats in volume to the control,"sarcoma M-1; 2.5 mg/100 g + 100 J/cm^2 for 1 h, day 21",94.2
same,Growth inhibition rate of sarcoma M-1 of rats in volume to the control,"sarcoma M-1; 2.5 mg/100 g + 100 J/cm^2 for 1 h, day 24",93.6
same,Growth dynamics of sarcoma M-1 (volume),"sarcoma M-1; 2.5 mg/kg + 100 J/cm^2 for 1 h, day 7 after tumor transplant",0.25 ± 0.03 cm^3
same,Growth dynamics of sarcoma M-1 (volume),"sarcoma M-1; 2.5 mg/kg + 100 J/cm^2 for 1 h, day 10 after tumor transplant",0.28 ± 0.03 cm^3
same,Growth dynamics of sarcoma M-1 (volume),"sarcoma M-1; 2.5 mg/kg + 100 J/cm^2 for 1 h, day 12 after tumor transplant",0.34 ± 0.06 cm^3
same,Growth dynamics of sarcoma M-1 (volume),"sarcoma M-1; 2.5 mg/kg + 100 J/cm^2 for 1 h, day 14 after tumor transplant",0.41 ± 0.09 cm^3
same,Growth dynamics of sarcoma M-1 (volume),"sarcoma M-1; 2.5 mg/kg + 100 J/cm^2 for 1 h, day 17 after tumor transplant",0.46 ± 0.11 cm^3
same,Growth dynamics of sarcoma M-1 (volume),"sarcoma M-1; 2.5 mg/kg + 100 J/cm^2 for 1 h, day 19 after tumor transplant",0.69 ± 0.27 cm^3
same,Growth dynamics of sarcoma M-1 (volume),"sarcoma M-1; 2.5 mg/kg + 100 J/cm^2 for 1 h, day 21 after tumor transplant",0.96 ± 0.38 cm^3
same,Growth dynamics of sarcoma M-1 (volume),"sarcoma M-1; 2.5 mg/kg + 100 J/cm^2 for 1 h, day 24 after tumor transplant",1.19 ± 0.48 cm^3
same,Growth inhibition rate of sarcoma M-1 of rats in volume to the control,"sarcoma M-1; 5 mg/100 g + 100 J/cm^2 for 1 h, day 7",36.9
same,Growth inhibition rate of sarcoma M-1 of rats in volume to the control,"sarcoma M-1; 5 mg/100 g + 100 J/cm^2 for 1 h, day 10",77.9
same,Growth inhibition rate of sarcoma M-1 of rats in volume to the control,"sarcoma M-1; 5 mg/100 g + 100 J/cm^2 for 1 h, day 12",89.1
same,Growth inhibition rate of sarcoma M-1 of rats in volume to the control,"sarcoma M-1; 5 mg/100 g + 100 J/cm^2 for 1 h, day 14",92.6
same,Growth inhibition rate of sarcoma M-1 of rats in volume to the control,"sarcoma M-1; 5 mg/100 g + 100 J/cm^2 for 1 h, day 17",95.8
same,Growth inhibition rate of sarcoma M-1 of rats in volume to the control,"sarcoma M-1; 5 mg/100 g + 100 J/cm^2 for 1 h, day 19",95.9
same,Growth inhibition rate of sarcoma M-1 of rats in volume to the control,"sarcoma M-1; 5 mg/100 g + 100 J/cm^2 for 1 h, day 21",96.9
same,Growth inhibition rate of sarcoma M-1 of rats in volume to the control,"sarcoma M-1; 5 mg/100 g + 100 J/cm^2 for 1 h, day 24",97.1
same,Growth dynamics of sarcoma M-1 (volume),"sarcoma M-1; 5 mg/kg + 100 J/cm^2 for 1 h, day 7 after tumor transplant",0.29 ± 0.02 cm^3
same,Growth dynamics of sarcoma M-1 (volume),"sarcoma M-1; 5 mg/kg + 100 J/cm^2 for 1 h, day 10 after tumor transplant",0.300 ± .03 cm^3
same,Growth dynamics of sarcoma M-1 (volume),"sarcoma M-1; 5 mg/kg + 100 J/cm^2 for 1 h, day 12 after tumor transplant",0.30 ± 0.03 cm^3
same,Growth dynamics of sarcoma M-1 (volume),"sarcoma M-1; 5 mg/kg + 100 J/cm^2 for 1 h, day 14 after tumor transplant",0.30 ± 0.03 cm^3
same,Growth dynamics of sarcoma M-1 (volume),"sarcoma M-1; 5 mg/kg + 100 J/cm^2 for 1 h, day 17 after tumor transplant",0.37 ± 0.05 cm^3
same,Growth dynamics of sarcoma M-1 (volume),"sarcoma M-1; 5 mg/kg + 100 J/cm^2 for 1 h, day 19 after tumor transplant",0.47 ± 0.11 cm^3
same,Growth dynamics of sarcoma M-1 (volume),"sarcoma M-1; 5 mg/kg + 100 J/cm^2 for 1 h, day 21 after tumor transplant",0.50 ± 0.14 cm^3
same,Growth dynamics of sarcoma M-1 (volume),"sarcoma M-1; 5 mg/kg + 100 J/cm^2 for 1 h, day 24 after tumor transplant",0.54 ± 0.17 cm^3
same,Growth inhibition rate of sarcoma M-1 of rats in volume to the control,"sarcoma M-1; 10 mg/100 g + 100 J/cm^2 for 1 h, day 7",56.5
same,Growth inhibition rate of sarcoma M-1 of rats in volume to the control,"sarcoma M-1; 10 mg/100 g + 100 J/cm^2 for 1 h, day 10",86.0
same,Growth inhibition rate of sarcoma M-1 of rats in volume to the control,"sarcoma M-1; 10 mg/100 g + 100 J/cm^2 for 1 h, day 12",93.8
same,Growth inhibition rate of sarcoma M-1 of rats in volume to the control,"sarcoma M-1; 10 mg/100 g + 100 J/cm^2 for 1 h, day 14",95.8
same,Growth inhibition rate of sarcoma M-1 of rats in volume to the control,"sarcoma M-1; 10 mg/100 g + 100 J/cm^2 for 1 h, day 17",98.1
same,Growth inhibition rate of sarcoma M-1 of rats in volume to the control,"sarcoma M-1; 10 mg/100 g + 100 J/cm^2 for 1 h, day 19",95.2
same,Growth inhibition rate of sarcoma M-1 of rats in volume to the control,"sarcoma M-1; 10 mg/100 g + 100 J/cm^2 for 1 h, day 21",98.8
same,Growth inhibition rate of sarcoma M-1 of rats in volume to the control,"sarcoma M-1; 10 mg/100 g + 100 J/cm^2 for 1 h, day 24",98.9
same,Growth dynamics of sarcoma M-1 (volume),"sarcoma M-1; 10 mg/kg + 100 J/cm^2 for 1 h, day 7 after tumor transplant",0.20 ± 0.03 cm^3
same,Growth dynamics of sarcoma M-1 (volume),"sarcoma M-1; 10 mg/kg + 100 J/cm^2 for 1 h, day 10 after tumor transplant",0.19 ± 0.04 cm^3
same,Growth dynamics of sarcoma M-1 (volume),"sarcoma M-1; 10 mg/kg + 100 J/cm^2 for 1 h, day 12 after tumor transplant",0.17 ± 0.03 cm^3
same,Growth dynamics of sarcoma M-1 (volume),"sarcoma M-1; 10 mg/kg + 100 J/cm^2 for 1 h, day 14 after tumor transplant",0.17 ± 0.03 cm^3
same,Growth dynamics of sarcoma M-1 (volume),"sarcoma M-1; 10 mg/kg + 100 J/cm^2 for 1 h, day 17 after tumor transplant",0.17 ± 0.03 cm^3
same,Growth dynamics of sarcoma M-1 (volume),"sarcoma M-1; 10 mg/kg + 100 J/cm^2 for 1 h, day 19 after tumor transplant",0.17 ± 0.03 cm^3
same,Growth dynamics of sarcoma M-1 (volume),"sarcoma M-1; 10 mg/kg + 100 J/cm^2 for 1 h, day 21 after tumor transplant",0.20 ± 0.03 cm^3
same,Growth dynamics of sarcoma M-1 (volume),"sarcoma M-1; 10 mg/kg + 100 J/cm^2 for 1 h, day 24 after tumor transplant",0.20 ± 0.03 cm^3

# Reference: patent publication US20120035180A1, “PHARMACEUTICAL COMPOSITION FOR TREATING CANCER COMPRISING CHLORIN E6-FOLIC ACID CONJUGATE COMPOUND AND CHITOSAN” (priority 2009, published 2012)
